Measured values taken from patent US20250064941A1, “SIGLEC LIGANDS, CONJUGATES, AND METHODS OF USE THEREOF” (Osprey Biopharmaceuticals, Inc., priority 2023, published 2025).

What was measured:
[1] = biological target: T1, mouse Siglec-2-Fc-Avi (CD22) (Mus musculus, UniProt P35329); experiment: SPR binding affinity to mouse CD22; conditions: steady-state analysis
T1 construct: made in house
T1 sequence (P35329 22-708 limits assumed): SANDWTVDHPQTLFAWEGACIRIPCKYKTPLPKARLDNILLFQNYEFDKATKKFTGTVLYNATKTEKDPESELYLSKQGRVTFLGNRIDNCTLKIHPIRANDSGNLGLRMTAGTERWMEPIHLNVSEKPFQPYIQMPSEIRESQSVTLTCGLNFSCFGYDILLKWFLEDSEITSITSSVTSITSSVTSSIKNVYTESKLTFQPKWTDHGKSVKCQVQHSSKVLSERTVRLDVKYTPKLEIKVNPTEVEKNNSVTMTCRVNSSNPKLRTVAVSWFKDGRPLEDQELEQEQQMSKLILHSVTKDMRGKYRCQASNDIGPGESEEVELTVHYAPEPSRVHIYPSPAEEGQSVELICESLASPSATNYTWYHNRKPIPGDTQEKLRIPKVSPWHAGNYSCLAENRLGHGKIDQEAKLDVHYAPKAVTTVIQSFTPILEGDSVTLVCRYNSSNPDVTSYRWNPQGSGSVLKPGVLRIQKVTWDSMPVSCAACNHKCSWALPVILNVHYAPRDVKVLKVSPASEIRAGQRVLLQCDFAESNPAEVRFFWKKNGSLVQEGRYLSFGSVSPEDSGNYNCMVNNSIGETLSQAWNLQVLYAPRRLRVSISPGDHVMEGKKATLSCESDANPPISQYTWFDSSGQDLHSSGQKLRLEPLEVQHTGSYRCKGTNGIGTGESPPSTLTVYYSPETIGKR
Summary of the method: (§1)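 Steady-state fits gave the affinities. Before capture on a streptavidin surface, biotinylated CD22 had native sialic acids stripped (SialoExo, 4 hours, 37° C.). Running buffer: 10 mM HEPES pH 7.5, 150 mM NaCl, 0.05% Tween-20, 1% DMSO, with DMSO solvent correction.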

[2] = biological target: T2, human Siglec-2/CD22 protein (Homo sapiens, UniProt P20273); experiment: SPR binding affinity to human CD22; conditions: steady-state analysis
T2 construct: purchased Acro Biosystems SI2-H82E3
T2 sequence (P20273 20-847): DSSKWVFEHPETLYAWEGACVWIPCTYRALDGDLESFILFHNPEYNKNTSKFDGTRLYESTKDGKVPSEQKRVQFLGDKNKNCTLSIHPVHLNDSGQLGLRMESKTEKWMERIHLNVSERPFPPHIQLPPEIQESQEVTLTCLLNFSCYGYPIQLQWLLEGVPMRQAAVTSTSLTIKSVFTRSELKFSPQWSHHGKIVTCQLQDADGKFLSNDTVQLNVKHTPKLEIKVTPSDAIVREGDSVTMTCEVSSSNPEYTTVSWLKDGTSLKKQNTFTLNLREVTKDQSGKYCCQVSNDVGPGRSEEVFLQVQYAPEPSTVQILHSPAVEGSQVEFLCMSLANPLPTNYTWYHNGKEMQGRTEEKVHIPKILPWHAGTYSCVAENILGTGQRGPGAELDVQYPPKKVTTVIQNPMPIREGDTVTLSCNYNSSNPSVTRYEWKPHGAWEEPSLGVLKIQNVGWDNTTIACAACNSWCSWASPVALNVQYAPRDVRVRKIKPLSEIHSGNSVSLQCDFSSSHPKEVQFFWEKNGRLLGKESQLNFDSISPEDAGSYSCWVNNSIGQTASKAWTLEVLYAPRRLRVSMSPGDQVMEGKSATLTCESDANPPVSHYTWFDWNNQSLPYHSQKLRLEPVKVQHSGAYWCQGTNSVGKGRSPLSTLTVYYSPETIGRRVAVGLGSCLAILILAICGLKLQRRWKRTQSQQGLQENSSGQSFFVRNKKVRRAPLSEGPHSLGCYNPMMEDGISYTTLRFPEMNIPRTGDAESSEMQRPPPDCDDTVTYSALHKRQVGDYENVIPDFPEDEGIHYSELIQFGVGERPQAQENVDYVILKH
Summary of the method: as §1

cynomolgus Siglec-2/CD22 = cynomolgus Siglec-2/CD22 (Macaca fascicularis, UniProt A0A2K5WCZ6); experiment: biochemical; assay type: binding; conditions: SPR, steady-state analysis; read-out: Affinity cyno CD22
Chain of cynomolgus Siglec-2/CD22 (A0A2K5WCZ6 entry or part of it): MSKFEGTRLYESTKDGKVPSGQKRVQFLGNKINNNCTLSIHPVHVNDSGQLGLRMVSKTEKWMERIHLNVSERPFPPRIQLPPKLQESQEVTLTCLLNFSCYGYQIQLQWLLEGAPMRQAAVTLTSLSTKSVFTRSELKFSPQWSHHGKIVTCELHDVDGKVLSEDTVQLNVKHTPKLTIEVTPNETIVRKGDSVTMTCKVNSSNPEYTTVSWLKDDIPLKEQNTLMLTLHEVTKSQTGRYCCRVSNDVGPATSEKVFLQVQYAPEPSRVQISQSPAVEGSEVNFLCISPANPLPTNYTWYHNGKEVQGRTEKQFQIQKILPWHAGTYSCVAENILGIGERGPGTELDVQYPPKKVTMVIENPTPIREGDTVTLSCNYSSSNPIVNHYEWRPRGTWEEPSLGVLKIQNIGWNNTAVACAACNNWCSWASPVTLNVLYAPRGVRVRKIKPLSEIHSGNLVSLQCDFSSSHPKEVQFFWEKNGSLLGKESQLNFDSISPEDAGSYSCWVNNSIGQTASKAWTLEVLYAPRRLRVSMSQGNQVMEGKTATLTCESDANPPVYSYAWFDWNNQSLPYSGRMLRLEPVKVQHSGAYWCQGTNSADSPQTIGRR
Summary of the method: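 Compound binding measured by steady-state SPR analysis, 120 s dissociation, in HEPES-NaCl-Tween buffer pH 7.5 containing 1% DMSO, DMSO solvent-corrected. Surface: cyno CD22, sialic acids first stripped by SialoExo for 4 h at 37° C., then amine-coupled onto CM5.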

| SMILES | Kd [1] | Kd [2] | Kd (cynomolgus Siglec-2/CD22) |
| --- | --- | --- | --- |
| C#CCCCCCCO[C@]1(C(=O)O)C[C@H](O)[C@@H](NC(=O)CO)[C@H]([C@H](O)[C@H](O)CNC(=O)Cc2ccc(Cl)cc2)O1 [Compound 110, (2R,4S,5R,6R)-6-((1R,2R)-3-(2-(4-chlorophenyl)acetamido)-1,2-dihydroxypropyl)-4-hydroxy-5-(2-hydroxyacetamido)-2-(oct-7-yn-1-yloxy)tetrahydro-2H-pyran-2-carboxylic acid] | < 1 µM | < 1 µM | < 1 µM |
| C#CCCOc1ccc(CO[C@]2(C(=O)O)C[C@H](O)[C@@H](NC(=O)CO)[C@H]([C@H](O)[C@H](O)CNC(=O)Cc3ccc(NC(C)=O)cc3)O2)cc1 [Compound 168, (2R,4S,5R,6R)-6-((1R,2R)-3-(2-(4-acetamidophenyl)acetamido)-1,2-dihydroxypropyl)-2-((4-(but-3-yn-1-yloxy)benzyl)oxy)-4-hydroxy-5-(2-hydroxyacetamido)tetrahydro-2H-pyran-2-carboxylic acid] | 1 to 10 µM | 1 to 10 µM | 1 to 10 µM |
| C#CCCCCCCc1cn([C@]2(C(=O)O)C[C@H](O)[C@@H](NC(=O)CO)[C@H]([C@H](O)[C@H](O)CNC(=O)Cc3ccc(Cl)cc3)O2)nn1 [Compound 119, (2R,4S,5R,6R)-6-((1R,2R)-3-(2-(4-chlorophenyl)acetamido)-1,2-dihydroxypropyl)-4-hydroxy-5-(2-hydroxyacetamido)-2-(4-(oct-7-yn-1-yl)-1H-1,2,3-triazol-1-yl)tetrahydro-2H-pyran-2-carboxylic acid] | 1 to 10 µM | 1 to 10 µM | 1 to 10 µM |
| C#CCOCCCCCCO[C@]1(C(=O)O)C[C@H](O)[C@@H](NC(=O)CO)[C@H]([C@H](O)[C@H](O)CNC(=O)Cc2ccc(C(C)(C)C)cc2)O1 [Compound 160, (2R,4S,5R,6R)-6-((1R,2R)-3-(2-(4-(tert-butyl)phenyl)acetamido)-1,2-dihydroxypropyl)-4-hydroxy-5-(2-hydroxyacetamido)-2-((6-(prop-2-yn-1-yloxy)hexyl)oxy)tetrahydro-2H-pyran-2-carboxylic acid] | 1 to 10 µM | < 1 µM | < 1 µM |
| C#CCOc1ccc(CO[C@]2(C(=O)O)C[C@H](O)[C@@H](NC(=O)CO)[C@H]([C@H](O)[C@H](O)CNC(=O)Cc3cccc(F)c3)O2)cc1 [Compound 167, (2R,4S,5R,6R)-6-((1R,2R)-3-(2-(3-fluorophenyl)acetamido)-1,2-dihydroxypropyl)-4-hydroxy-5-(2-hydroxyacetamido)-2-((4-(prop-2-yn-1-yloxy)benzyl)oxy)tetrahydro-2H-pyran-2-carboxylic acid] | 1 to 10 µM | < 1 µM | 1 to 10 µM |
| C#CCOCCOCCO[C@]1(C(=O)O)C[C@H](O)[C@@H](NC(=O)CO)[C@H]([C@H](O)[C@H](O)CNC(=O)c2ccc(-c3ccc(O)cc3)cc2)O1 [Compound 19, (2R,4S,5R,6R)-6-((1R,2R)-1,2-dihydroxy-3-(4′-hydroxy-[1,1′-biphenyl]-4-carboxamido)propyl)-4-hydroxy-5-(2-hydroxyacetamido)-2-(2-(2-(prop-2-yn-1-yloxy)ethoxy)ethoxy)tetrahydro-2H-pyran-2-carboxylic acid] | 1 to 10 µM | < 1 µM | 1 to 10 µM |
| C#CCOCCCCCCO[C@]1(C(=O)O)C[C@H](O)[C@@H](NC(=O)CO)[C@H]([C@H](O)[C@H](O)CNC(=O)Cc2ccc(Cl)c(F)c2)O1 [Compound 130, (2R,4S,5R,6R)-6-((1R,2R)-3-(2-(4-chloro-3-fluorophenyl)acetamido)-1,2-dihydroxypropyl)-4-hydroxy-5-(2-hydroxyacetamido)-2-((6-(prop-2-yn-1-yloxy)hexyl)oxy)tetrahydro-2H-pyran-2-carboxylic acid] | 1 to 10 µM | < 1 µM | < 1 µM |
| C#CCCOc1ccc(CO[C@]2(C(=O)O)C[C@H](O)[C@@H](NC(=O)CO)[C@H]([C@H](O)[C@H](O)CNC(=O)Cc3ccc4nn[nH]c4c3)O2)cc1 [Compound 9, (2R,4S,5R,6R)-6-((1R,2R)-3-(2-(1H-benzo[d][1,2,3]triazol-6-yl)acetamido)-1,2-dihydroxypropyl)-2-((4-(but-3-yn-1-yloxy)benzyl)oxy)-4-hydroxy-5-(2-hydroxyacetamido)tetrahydro-2H-pyran-2-carboxylic acid] | 1 to 10 µM | 1 to 10 µM | 1 to 10 µM |

The remaining lines, values ahead:

| Kd [1] | Kd [2] | Kd (cynomolgus Siglec-2/CD22) | SMILES |
| --- | --- | --- | --- |
| 1 to 10 µM | < 1 µM | < 1 µM | C#CCCC(=O)NCCCCCCO[C@]1(C(=O)O)C[C@H](O)[C@@H](NC(=O)CO)[C@H]([C@H](O)[C@H](O)CNC(=O)Cc2ccc(Cl)cc2)O1 [Compound 217, (2R,4S,5R,6R)-6-((1R,2R)-3-(2-(4-chlorophenyl)acetamido)-1,2-dihydroxypropyl)-4-hydroxy-5-(2-hydroxyacetamido)-2-((6-(pent-4-ynamido)hexyl)oxy)tetrahydro-2H-pyran-2-carboxylic acid] |
| 1 to 10 µM | < 1 µM | < 1 µM | C#CCOCCOCCNc1c(NCCCCCCO[C@]2(C(=O)O)C[C@H](O)[C@@H](NC(=O)CO)[C@H]([C@H](O)[C@H](O)CNC(=O)c3cccc(Cl)c3)O2)c(=O)c1=O [Compound 227, (2R,4S,5R,6R)-6-((1R,2R)-3-(3-chlorobenzamido)-1,2-dihydroxypropyl)-2-((6-((3,4-dioxo-2-((2-(2-(prop-2-yn-1-yloxy)ethoxy)ethyl)amino)cyclobut-1-en-1-yl)amino)hexyl)oxy)-4-hydroxy-5-(2-hydroxyacetamido)tetrahydro-2H-pyran-2-carboxylic acid] |
| 1 to 10 µM | 1 to 10 µM | 1 to 10 µM | CC(=O)NCCOCCOCCOCCOCCNc1c(NCCOCCOCCO[C@]2(C(=O)O)C[C@H](O)[C@@H](NC(=O)CO)[C@H]([C@H](O)[C@H](O)CNC(=O)Cc3ccc(-c4ccccc4)cc3)O2)c(=O)c1=O [Cpd. 242, (2R,4S,5R,6R)-6-((1R,2R)-3-(2-([1,1′-biphenyl]-4-yl)acetamido)-1,2-dihydroxypropyl)-2-(2-(2-(2-((3,4-dioxo-2-((2-oxo-6,9,12,15-tetraoxa-3-azaheptadecan-17-yl)amino)cyclobut-1-en-1-yl)amino)ethoxy)ethoxy)ethoxy)-4-hydroxy-5-(2-hydroxyacetamido)tetrahydro-2H-pyran-2-carboxylic acid] |
| < 1 µM | < 1 µM | < 1 µM | C#CCOCCNC(=O)CCCCCCO[C@]1(C(=O)O)C[C@H](O)[C@@H](NC(=O)CO)[C@H]([C@H](O)[C@H](O)CNC(=O)Cc2ccc(Cl)c(F)c2)O1 [Cpd. 214, (2R,4S,5R,6R)-6-((1R,2R)-3-(2-(4-chloro-3-fluorophenyl)acetamido)-1,2-dihydroxypropyl)-4-hydroxy-5-(2-hydroxyacetamido)-2-((7-oxo-7-((2-(prop-2-yn-1-yloxy)ethyl)amino)heptyl)oxy)tetrahydro-2H-pyran-2-carboxylic acid] |
